Reference: patent US20230391778A1, “INDOLIN-2-ONE OR PYRROLO -PYRIDIN -2 -ONE DERIVATIVES” (Hoffmann-La Roche Inc., priority 2014, published 2023)

Key:
mouse ENT-1 transporter = target: T1, mouse ENT-1 transporter (Mus musculus, UniProt Q9JIM1); experiment: Measure of adenosine transport activity (ENT1 adenosine uptake inhibition); assay type: cell-based; settings: stable cells expressing mouse ENT-1, [2,8-3H]-adenosine 6 nM, 20 min
T1 construct: expressed in transfected cells
T1 sequence (Q9JIM1 1-460): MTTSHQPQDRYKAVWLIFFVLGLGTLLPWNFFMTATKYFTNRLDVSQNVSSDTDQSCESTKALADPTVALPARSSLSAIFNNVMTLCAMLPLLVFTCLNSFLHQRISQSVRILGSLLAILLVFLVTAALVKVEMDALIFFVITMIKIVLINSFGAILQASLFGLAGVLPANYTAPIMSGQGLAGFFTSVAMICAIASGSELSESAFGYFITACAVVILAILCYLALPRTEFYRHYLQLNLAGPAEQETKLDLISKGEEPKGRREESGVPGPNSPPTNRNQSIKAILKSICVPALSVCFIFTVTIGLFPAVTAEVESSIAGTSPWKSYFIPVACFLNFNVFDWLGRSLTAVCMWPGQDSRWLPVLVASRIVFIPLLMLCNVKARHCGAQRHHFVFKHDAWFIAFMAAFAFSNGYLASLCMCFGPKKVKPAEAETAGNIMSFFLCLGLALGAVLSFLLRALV
How it was run: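 Stable mouse ENT-1 cells, 60,000/well, washed into pH 7.4 Hepes-Tris uptake buffer and incubated at RT with compound (1% DMSO final) for 20 min with shaking. Non-specific uptake defined with 10 μM NBTI; cell-associated radioactivity counted by scintillation after ice-cold washes.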

[1] = system: L-687,414-induced hyperlocomotion; experiment: L-687,414-induced hyperlocomotion; assay type: in vivo, mouse; settings: Dose ip 30 mg/kg, mice, 50 mg/kg s.c. L-687,414; for inhibition in vivo at 30 mg/kg: Mus musculus
Method: The described compounds of formula I reduce L-687,414-induced hyperlocomotion. This was assessed by using a computerized Digiscan 16 Animal Activity Monitoring System (Omnitech Electronics, Columbus, Ohio) to quantify locomotor activity. Animals were kept under a 12 h light/dark cycle and experiments were performed during the light period. Each activity monitoring chamber consisted of a Plexiglas box (41×41×28 cm; W×L×H) with sawdust bedding on the floor surrounded by invisible horizontal and vertical infrared sensor beams. The test boxes were divided by a Plexiglas cross providing each mouse with 20×20 cm of moving space. Cages were connected to a Digiscan Analyzer linked to a computer that constantly collected the beam status information. Records of photocell beam interruptions for individual animals were taken every 5 min over the duration of the experimental session and the sum of the first 6 periods was used as the final parameter. At least 8 mice were used in each treatment group. Compounds were administered either p.o. 15 min before a s.c. injection of 50 mg/kg of L-687,414, or i.p. at the same time as a s.c. injection of 50 mg/kg of L-687,414. Mice were then transferred from their home cage to the recording chambers for a 15-min habituation phase allowing free exploration of the new environment. Horizontal activity was then recorded for a 30-min time period. The % inhibition of L-687,414-induced hyperlocomotion was calculated according to the equation:
((Veh+L-687,414 horizontal activity−drug+L-687,414 horizontal activity)/Veh+L-687,414 horizontal activity)×100
ID50 values, defined as doses of each compound producing 50% inhibition of L-687,414-induced hyperlocomotion, were calculated by linear regression analysis of a dose-response data using an Excel-based computer-fitting program.
As data was not presupposed to be normally distributed, groups treated with test compounds were statistically compared with the control (vehicle-treated) group using one-tailed Mann Whitney U tests. In statistics, the Mann-Whitney U test (also called the Mann-Whitney-Wilcoxon (MWW) or Wilcoxon rank-sum test) is a non-parametric statistical hypothesis test for assessing whether one of two samples of independent observations tends to have larger values than the other. It is one of the most well-known non-parametric significance tests. […] P values given in table 1 are one-tailed since only decreases in locomotion were expected and tested for (Mann, H. B., Whitney, D. R. (1947), “On a Test of Whether one of Two Random Variables is Stochastically Larger than the Other”, Annals of Mathematical Statistics, 18 (1), 50-60).

IC50 (mouse ENT-1 transporter) [nM] | Compound | inhibition in vivo at 30 mg/kg [1] [%] | L-687,414-induced hyperlocomotion Inhibition, ip [%] [1] [%]
203 | Cc1ncc(-c2ccc3c(c2)N(c2ncc(Cl)cn2)C(=O)C3(C)C)cn1 [Example 113, 1-(5-chloropyrimidin-2-yl)-3,3-dimethyl-6-(2-methylpyrimidin-5-yl)indolin-2-one] | 91.1 | 
431 | Cc1ncc(-c2ccc3c(c2)N(c2ccncc2)C(=O)C3(C)C)cn1 [Example 1, 3,3-Dimethyl-6-(2-methylpyrimidin-5-yl)-1-(pyridin-4-yl)indolin-2-one] | 95.4 | 
2210 | Cc1ncc(-c2ccc3c(c2)N(c2cnnc(Cl)c2)C(=O)C3(C)C)cn1 [Example 126, 1-(6-chloropyridazin-4-yl)-3,3-dimethyl-6-(2-methylpyrimidin-5-yl)indolin-2-one] | 74.7 | 
340 | Cc1ncc(-c2ccc3c(c2)N(c2ccc(C)c(C)n2)C(=O)C3(C)C)cn1 [Example 70, 1-(5,6-dimethylpyridin-2-yl)-3,3-dimethyl-6-(2-methylpyrimidin-5-yl)indolin-2-one] | 93.5 | 
3600 | Cc1ncc(-c2ccc3c(c2)N(c2ccnnc2)C(=O)C3(C)C)cn1 [Example 120, 3,3-dimethyl-6-(2-methylpyrimidin-5-yl)-1-(pyridazin-4-yl)indolin-2-one] | 90.8 | 
6750 | CC(C)c1cn(-c2ccc3c(c2)N(c2ccn(C)n2)C(=O)C3(C)C)cn1 [Example 37, 6-(4-Isopropylimidazol-1-yl)-3,3-dimethyl-1-(1-methylpyrazol-3-yl)indolin-2-one] | 73.8 | 
 | Cc1cc(-c2cc3c(cn2)C(C)(C)C(=O)N3c2ccc(C)nn2)ccn1 [Example 109, 3,3-dimethyl-1-(6-methylpyridazin-3-yl)-6-(2-methylpyridin-4-yl)-1H-pyrrolo[3,2-c]pyridin-2(3H)-one] | 51.3 | 
226 | Cc1cc(N2C(=O)C(C)(C)c3ccc(-c4cnc(C)nc4)cc32)sn1 [Example 124, 3,3-dimethyl-1-(3-methylisothiazol-5-yl)-6-(2-methylpyrimidin-5-yl)indolin-2-one] | 53.3 | 
 | Cc1ccc(N2C(=O)C(C)(C)c3ccc(-c4nnc(C)o4)cc32)cn1 [Example 34, 3,3-Dimethyl-6-(5-methyl-1,3,4-oxadiazol-2-yl)-1-(6-methyl-3-pyridyl)indolin-2-one] | 59.7 | 
47 | Cc1ncc(-c2ccc3c(c2)N(c2cnc(C4CC4)cn2)C(=O)C3(C)C)cn1 [Example 95, 1-(5-cyclopropylpyrazin-2-yl)-3,3-dimethyl-6-(2-methylpyrimidin-5-yl)indolin-2-one] | 76.9 | 
1000 | Cc1ncc(-c2ccc3c(c2)N(c2ccnc(F)c2)C(=O)C3(C)C)cn1 [Example 45, 1-(2-Fluoropyridin-4-yl)-3,3-dimethyl-6-(2-methylpyrimidin-5-yl)indolin-2-one] | 80.5 | 
102 | Cc1ncc(-c2ccc3c(c2)N(c2cncc(C4CC4)n2)C(=O)C3(C)C)cn1 [Example 97, 1-(6-cyclopropylpyrazin-2-yl)-3,3-dimethyl-6-(2-methylpyrimidin-5-yl)indolin-2-one] | 78.5 | 
613 | Cc1ncc(-c2ccc3c(c2)N(c2cn(C)cn2)C(=O)C3(C)C)cn1 [Example 2, 3,3-Dimethyl-1-(1-methyl-1H-imidazol-4-yl)-6-(2-methylpyrimidin-5-yl)indolin-2-one] | 95.7 | 
132 | Cc1ncc(-c2ccc3c(c2)N(c2ncc(C)s2)C(=O)C3(C)C)cn1 [Example 125, 3,3-dimethyl-6-(2-methylpyrimidin-5-yl)-1-(5-methylthiazol-2-yl)indolin-2-one] | 52 | 
 | Cc1ncc(-c2ccc3c(c2)N(c2ncn(C)n2)C(=O)C3(C)C)cn1 [Example 82, 3,3-dimethyl-1-(1-methyl-1H-1,2,4-triazol-3-yl)-6-(2-methylpyrimidin-5-yl)indolin-2-one] | 89.6 | 
1820 | 3,3-dimethyl-1,6-bis(5-methylpyrazin-2-yl)indolin-2-one [Example 91] |  | 73.7
7730 | Cc1ncc(-c2ccc3c(c2)N(c2nccnc2C)C(=O)C3(C)C)cn1 [Example 127, 3,3-dimethyl-1-(3-methylpyrazin-2-yl)-6-(2-methylpyrimidin-5-yl)indolin-2-one] | 72.8 | 
 | Cc1ncc(-c2cc3c(cn2)C(C)(C)C(=O)N3c2ccn(C)n2)cn1 [Example 16, 3,3-Dimethyl-1-(1-methyl-1H-pyrazol-3-yl)-6-(2-methylpyrimidin-5-yl)-1H-pyrrolo[3,2-c]pyridin-2(3H)-one] | 78.3 | 
951 | Cc1ncc(-c2ccc3c(c2)N(c2ccn(C)n2)C(=O)C3(C)C)cn1 [Example 4, 3,3-Dimethyl-1-(1-methyl-1H-pyrazol-3-yl)-6-(2-methylpyrimidin-5-yl)indolin-2-one] | 93.4 | 
2410 | Cc1ncc(-c2ccc3c(c2)N(c2cnccn2)C(=O)C3(C)C)cn1 [Example 77, 3,3-dimethyl-6-(2-methylpyrimidin-5-yl)-1-(pyrazin-2-yl)indolin-2-one] | 92.6 | 
 | Cc1cc(-c2cc3c(cn2)C(C)(C)C(=O)N3c2cn(C)cn2)ccn1 [Example 111, 3,3-dimethyl-1-(1-methyl-1H-imidazol-4-yl)-6-(2-methylpyridin-4-yl)-1H-pyrrolo[3,2-c]pyridin-2(3H)-one] | 51 | 

Compound | IC50 (mouse ENT-1 transporter) [nM] | inhibition in vivo at 30 mg/kg [1] [%] | L-687,414-induced hyperlocomotion Inhibition, ip [%] [1] [%]
1-(2-cyclopropylpyrimidin-5-yl)-3,3-dimethyl-6-(2-methylpyrimidin-5-yl)indolin-2-one [Example 116] | 230 |  | 92.8
